The IC50 is the concentration at which inhibition is half-maximal. A low value points to inhibition by little substance.

One compound from patent US20230203005A1, “COMPOUNDS WITH TUBULIN POLYMERISATION INHIBITORY ACTIVITY AND IMMUNOMODULATORY PROPERTIES” (UNIVERSITE PARIS-SACLAY, priority 2018, published 2023) can be followed below.

Experiment [1] relates to HCT116 colorectal carcinoma. Description: In vitro cytotoxicity (CellTiter-Blue), HCT116. It counts as cell-based. Conditions: Homo sapiens, HCT-116; 72 hours of incubation. The method, then: (§1) The biological activity of the compounds of the invention were studied in vitro on […] human cancer cell lines of different tissular origins: HCT116 colorectal carcinoma; A2780R Cisplatin resistant ovary cancer; MiaPaca2 pancreatic cancer; K562R Doxorubicin resistant chronic myeloid leukaemia; JIM-T1 Trastuzumab-DM1 resistant mammal carcinoma; and HepG2 hepatic carcinoma. The cells selected for this study were incubated at 37° C. in the presence of one of the compounds added to the culture medium at different concentrations. The series of experiments carried out made it possible to determine the degree of toxicity of the compound tested, its effect on cell cycle progression as well as its capacity to induce cell death by apoptosis.
All the cell lines were maintained in culture at 37° C. in a humid atmosphere containing 5% CO2. Cell viability was evaluated using the reagent CellTiter-Blue™ (Promega, Wis., USA) while respecting the manufacturer's instructions. The cells were seeded in 96 well culture plates at a rate of 5000 cells per […] in 50 μl of culture medium. After 24 hours of culture, the compounds of generic formula (I) dissolved in DMSO were added individually to each of the wells at a rate of 50 μl per well. All the compounds were tested in triplicate for each concentration defined and each experiment was repeated 3 times. After 72 hours of incubation, 20 μL of resazurin were added to each well. After 2 hours of incubation, the fluorescence emitted was measured at 590 nm after excitation at 560 nm by means of a Victor type fluorescence reader (Perkin-Elmer, USA).
(In general: The colour change of resazurin is a common sign of viable cells or microbes.)

The test system of experiment [2] is A2780R Cisplatin resistant ovary cancer. As to the kind of experiment: In vitro cytotoxicity (CellTiter-Blue), A2780R. It counts as cell-based. Conditions: Homo sapiens; 72 hours of incubation. Here is the method: as §1
(§2) All the cell lines were maintained in culture at 37° C. in a humid atmosphere containing 5% CO2. Cell viability was evaluated using the reagent CellTiter-Blue™ (Promega, Wis., USA) while respecting the manufacturer's instructions. The cells were seeded in 96 well culture plates at a rate of 5000 cells per […] in 50 μl of culture medium. […] After 2 hours of incubation, the fluorescence emitted was measured at 590 nm after excitation at 560 nm by means of a Victor type fluorescence reader (Perkin-Elmer, USA).

For experiment [3], the system named is MiaPaca2 pancreatic cancer. As to the kind of experiment: In vitro cytotoxicity (CellTiter-Blue), MiaPaca2. It is filed as cell-based. Conditions: Homo sapiens, MIA PaCa-2; 72 hours of incubation. Here is the method:
as §1, §2

In experiment [4] the test system is K562R Doxorubicin resistant chronic myeloid leukaemia. As to the kind of experiment: In vitro cytotoxicity (CellTiter-Blue), K562R. It is filed as cell-based. The following applies: Homo sapiens, K-562R; 72 hours of incubation. The method, then: as §1, §2
Experiment [5] concerns JIM-T1 Trastuzumab-DM1 resistant mammal carcinoma. Description: In vitro cytotoxicity (CellTiter-Blue), JIM-T1. It counts as cell-based. Conditions: Homo sapiens, JIMT-1; 72 hours of incubation. Here is the method: as §1, §2
A further experiment has as its system tubulin. As to the kind of experiment: Tubulin polymerisation inhibition (fluorescence assembly assay). It is filed as biochemical, ewe. Conditions: inhibition of 50% of the maximum assembly rate; tubulin 10 μM. Here is the method: The tubulin is purified from ewe brains according to the Shelanski method by 2 assembly-disassembly cycles. The mother solution (15-20 mg/mL), stored at −196° C., is thawed and diluted in the assembly buffer (0.1 M MES, 0.5 mM MgCl2, 1 mM EGTA, and 1 mM GTP, pH 6.6) to have a final concentration of 10 μM. Tubulin assembly is monitored by fluorescence on 96 well plates according to the method of Barron et al. (Anal. Biochem. 315 (2003) 49-56). To the solution of tubulin (10 μM, 100 μL per well) is added the inhibitor (DMSO, 1 μL) and the solution is incubated for 45 min at room temperature. GTP (1 mM final) is next added, the solution is rapidly mixed and the fluorescence (λex=350 nm, λem=440 nm) is measured on a Wallac Victor fluorimeter (Perkin Elmer). The determination of the inhibition of 50% of the maximum assembly rate (IC50) is carried out in duplicate or triplicate over 10 concentrations surrounding the IC50.

The subject of experiment [6] is HCT116 cells. As to the kind of experiment: Analysis of the cell cycle by flow cytometry. It is filed as cell-based, human. Conditions: HCT116, 24 hours of exposure, 5 nM. Here is the method: The HCT116 cells are seeded in 6 well culture plates at a rate of 300,000 cells per well in their respective media described above. After 24 hours of culture, compound 1 was added to each of the wells at different concentrations. After 24 hours of incubation, the cells are collected individually in 15 mL tubes then centrifuged. The cells are next washed twice in cold PBS then re-suspended in 1 mL of PBS, fixed by adding 2 mL of cold absolute ethanol and placed at 4° C. for 1 hour. After centrifugation, the cells are washed twice in PBS then the cell pellet is taken up in 100 μL of 1%. Triton X100. After 30 minutes of incubation at room temperature, 50 μL of RNase A boiled beforehand (1 mg/mL) and 500 μL of propidium iodide (50 μg/mL) are added to each tube and incubated in darkness at room temperature for 30 minutes. The distribution of the number of cells in each of the phases of the cell cycle is next determined by flow cytometry using a FC500 type cytometer (Beckman-Coulter, France).
(In general: A flow cytometer gives signals particle by particle.)

Experiment [7] relates to HCT116 cells. As to the kind of experiment: Apoptosis, caspase-3/7 activity (Apo-one assay). Conditions: HCT116, 24 h treatment, various concentrations. It counts as cell-based, human. Here is the method:
In order to clarify whether compound 1 brings about cell death by apoptosis, the intracellular enzymatic activity of caspases 3 and 7 was evaluated in cultures of HCT116 cells exposed for 24 hours to the action of compound 1.
Apoptosis is measured using the “Apo-one homogeneous caspase-3/7 assay” kit (Promega Co, WI, USA) following the manufacturer's recommendations. Briefly, the cells are seeded in 96 well culture plates at a rate of 50,000 cells per well in 100 μL of culture medium. After 24 hours of incubation, the medium is replaced by 100 μL of culture medium containing different concentrations of compound 1 or 0.1% of DMSO (negative control). After 24 hours of treatment, to each well is added 100 μL of reagent containing the caspase substrate and the buffer for the reaction. After 1 hour incubation, the fluorescence emitted by the cells is measured at 527 nm using a Victor type microplate reader (Perkin-Elmer, USA).

In a further experiment the test system is HUVECs. As to the kind of experiment: Formation of vascular tubes on Matrigel. It counts as cell-based, human. Conditions: 5 hours, 10 nM (non-toxic). Here is the method: To determine whether compound 1 disrupts the spatial organisation of endothelial cells into structures similar to vascular capillaries, human endothelial cells (HUVECs) were treated immediately after culturing on Matrigel™ or after 24 hours of culture, in order to allow them to form vascular tubes.
The HUVECs (human endothelial cells derived from the umbilical cord) were cultivated in EGM2 culture medium (Promocell, Germany). The cells were maintained in culture at 37° C. in a humid atmosphere containing 5% CO2.
To evaluate the anti-vascular activity of compound 1, the HUVECs were cultured in 96 well culture plates covered beforehand with an extract of extracellular matrix (Matrigel™, BD Biosciences, Le Pont-de-Claix, France) in which they spontaneously form capillary tubes.
Firstly, we measured the capacity of compound 1 to inhibit the formation of the capillary network. Matrigel™ is deposited in the 96 well culture plates at a rate of 70 μL/well and left to incubate at 37° C. for 45 minutes to enable its polymerisation. 20,000 HUVECs are seeded in each of the wells containing Matrigel™ in the absence or in the presence of different concentrations of compound 1, at a rate of 3 wells per concentration. After 2 hours, 3 hours and 5 hours of incubation at 37° C., the cells are observed and photographed using a TE2000 type optical microscope (Nikon, France), equipped with a camera. […]

In the case of `Cc1cc(N(C)c2ccc3c(c2)c2ccccc2n3C)c2ccccc2n1` [Compound 1, N,9-Dimethyl-N-(2-methylquinolin-4-yl)-9H-carbazol-3-amine], the IC50 came out at 0.07 ± 0.09 nM in experiment [1]; 0.54 ± 0.094 nM in [2]; 0.47 ± 0.01 nM in [3]; 0.277 ± 0.017 nM in experiment [4]; 0.36 ± 0.02 nM in experiment [5]; 1130 ± 160 nM in the experiment with tubulin. Further, the “Effect on cell cycle” value in the experiment with HCT116 cells [6] is listed as “blocks cellular division in the G2/M phase”. Further, the “Induction of apoptosis (caspases 3 and 7 activity)” value in the experiment with HCT116 cells [7] was “strong induction of apoptosis”. In addition, in the experiment with HUVECs, the “Number of vascular tubes” value was “very important decrease in the number of vascular tubes”.
